{"source": "patent US20070082858A1", "about": "“Methods and compositions for the prevention of toxic side effects of aminoglycoside medications” (priority 2004, published 2007)", "key": {"[1]": {"tested_on": "cochlear hair cells", "assay": "In vivo GTTR uptake in mouse cochlea after sub-cutaneous injection", "design": "species or system mice", "experimental": "(§1) Gentamicin sulfate was conjugated to Texas Red (Molecular Probes) using published methods (1) to produce a 300:1 molar dilution of gentamicin-Texas Red conjugate (GTTR). Mice were injected sub-cutaneously with a single 300 mg/kg dose of GTTR. Frogs were injected directly into the lymph sac (there is no sub-cutaneous space in frogs, lymph sacs drain directly into the blood). Control animals received an equivalent dose of hydrolyzed Texas Red succinimidyl esters only.\nAt specific time-points (0.5, 1, 2, 3, 6, 7.5, 9 and 24 hours) following injection, animals were anesthetized and inner ear organs were excised and fixed in 4% formaldehyde overnight. After washing in PBS, frog and murine organs were permeabilized using ice-cold acetone, and all organs were labeled with Alexa-488-conjugated, or FITC-conjugated phalloidin to localize filamentous actin. […]\nFor data analysis of murine samples, area intensity measurements of optically-sectioned hair cells (approximately 1-2 microns below the cuticular plate) were obtained from apical and basal cochlear regions (25 hair cells per row in each region). The mean basal intensity was divided by the mean apical intensity of an equivalent number of hair cells to derive a ratio that indicates the relative degree of fluorescence in basal hair cells compared to apical hair cells. […]"}, "[2]": {"tested_on": "bullfrog saccular hair cells", "assay": "In vivo GTTR uptake in bullfrog saccule after lymph sac injection", "experimental": "as §1\nAt specific time-points (0.5, 1, 2, 3, 6, 7.5, 9 and 24 hours) following injection, animals were anesthetized and inner ear organs were excised and fixed in 4% formaldehyde overnight. After washing in PBS, frog and murine organs were permeabilized using ice-cold acetone, and all organs were labeled with Alexa-488-conjugated, or FITC-conjugated phalloidin to localize filamentous actin. Mouse and frog inner ear epithelia were whole-mounted and observed using a Bio-Rad MRC 1024 ES laser scanning confocal system attached to a Nikon Eclipse TE300 inverted microscope. Alexa-488 and Texas Red images were collected sequentially using 1024×1024 pixel box size using a 4× (n.a. 0.25) and a 60× lens (n.a. 1.4) with an xy resolution=230 nm and xz resolution=440 nm. All control organs were imaged at the same laser intensity and gain settings as treated organs."}, "[3]": {"assay": "PIP2 quenching of GTTR and TR fluorescence (fixed cells and 3-d scanning fluorescence spectroscopy)", "details": "1 mg/ml PIP2 for 1.5 hour, imaged in PIP2 solution; recovered after delipidation", "experimental": "PIP2: Monolayer MDCK cells were grown in coverglass chambers as described above. After fixation, delipidation, washing and imaging (FIG. 27B), cells were treated with 1 mg/mL phosphatidylinositol-4,5-bisphosphate (PIP2, Echelon Biosciences, Salt Lake City, Utah) for 1.5 hours and re-imaged (FIG. 27E), prior to a second delipidation with 0.5% Triton, washing and imaging again (FIG. 27F).\nSpectrophotometry: 3-d scanning fluorescence spectroscopy of solutions containing TR or GTTR with or without (PIP2) were performed using a Safire fluorescence microplate reader (Tecan, Research Triangle Park, N.C.). GTTR (100 μg/mL; weight as gentamicin in molecule) and PIP2 (155 μg/mL; approximately equimolar) were mixed vigorously in PBS solution and allowed to stand at room temperature for ½ hour prior to scanning. This was compared to the same concentration of GTTR alone in solution. Similar hydrolyzed Texas Red solutions (at the same concentration as the Texas Red moiety in GTTR solutions), with or without PIP2, were used as controls. Excitation and emission spectra were obtained over an excitation range of 570-604 nm (bandwidth 5 nm) and an emission range of 610-650 nm (bandwidth 5 nm)."}, "[4]": {"tested_on": "MDCK cells", "assay": "GTTR uptake into MDCK cells under TRPV1 agonists/antagonists, cation channel blockers, cations and pH (30-60 seconds, 20° C., FATX fixation, confocal imaging)", "details": "75 μg/ml PIP2 added to 1 μg/ml GTTR in PBS, 1 minute", "source_text": "MDCK cells were used as a model system to test regulation of GTTR uptake by conditions known to produce or modify a cation current through the TRPV1 channel. Conditions tested were varying extracellular calcium concentrations, pH, specific agonists, specific antagonists, and the non-specific cation channel blocker Ruthenium Red. In addition, we pre-mixed PIP2 with GTTR to determine whether that anionic phospholipid, known to bind gentamicin, would alter GTTR uptake. All these assays were done at room temperature (20° C.), for 30 or 60 seconds, and using doses of GTTR of 5 to 10 μg/ml, which are far below the typical therapeutic level of <300 μg/ml. Buffers used for treatment were as described for each experiment. Cells were quickly washed to replace culture medium with treatment buffer, treated as indicated, washed again after treatment, fixed immediately with 4% formaldehyde and 0.5% Triton X-100 (FATX), and washed prior to imaging.\nMethods: Cells were seeded into 8-well coverglass chambers at 3000 cells/well and grown for 5 days.\nCells were washed three times with the buffer to be used in the particular experiment, treated with GTTR and experimental variable for 30 or 60 seconds at 20° C., precluding endocytosis. Following treatment, cells were rinsed three times with buffer, then fixed and delipidated with 4% formaldehyde plus 0.5% Triton X-100 (FATX) for 45 minutes. Following fixation, cells were rinsed with PBS (Invitrogen, CA) for at least 4-6 times, or until foaming in the suction pipette ceased. In contrast to previous experiments, no FBS was present in the treatment media, allowing for more rapid uptake of the antibiotic-based GTTR.\nMDCK cells were washed with Hank's buffered salt solution (HBSS; Invitrogen, CA), then placed into buffers of varying potassium concentrations. HBSS was mixed with equi-osmolar KCl/HBSS to produce the required K^+ concentrations. Cells were treated with 1 μg/mL GTTR for 1 minute, then washed and fixed as described above.\nCells were washed with PBS (Invitrogen, CA), then placed into buffers containing varying concentrations of calcium, obtained by mixing HBSS with equimolar CaCl2, each at pH 7.3. Cells were treated with 5 μg/mL of GTTR for 30 seconds, then washed and fixed as above.\nCells were washed with saline, then treated with 5 μg/mL of GTTR in saline buffers of varying pH for 30 seconds, then washed and fixed as above. Sodium hydroxide and hydrochloric acid were used to alter pH. These experiments were performed in three different saline buffers: (i) PBS (no calcium), (ii) a mixture of […] for a final calcium concentration of 0.32 mM, and (iii) a mixture of three parts PBS to one part HBSS for a final calcium concentration of 0.97 mM.\nCells were washed three times with Ca^++-free saline (0.9% NaCl), then treated with 5 μg/mL GTTR and one of the following for 30 seconds: TRPV1 agonists (resiniferatoxin [RTX]; or anandamide [AND]; Alexis Biochemicals, San Diego, Calif.); or antagonists (iodo-RTX, or SB 366791; Tocris, Ellisville, Mo.). Cells were then washed in saline and fixed as above.\nCells were washed three times with Ca^++-free 0.9% NaCl, then treated with 5 μg/mL GTTR and one of the following for 30 seconds: 100 μM Ruthenium Red, 100 μM Ruthenium Red plus one of the TRPV1 agonists or antagonists described above; or lanthanum (La^+++) at 0.5 or 5 mM."}}}
{"compound": "O=S(=O)([O-])c1cc(S(=O)(=O)O)ccc1C1=c2cc3c4c(c2Oc2c1cc1c5c2CCCN5CCC1)CCC[N+]=4CCC3", "note": "[hydrolyzed TR, Texas Red]", "values": [{"measurement": "fluorescence in inner ear epithelia", "setting": "[1]", "value": "negligible fluorescence in their inner ear epithelia at all time points"}, {"measurement": "fluorescence in inner ear epithelia", "setting": "[2]", "value": "negligible fluorescence in their inner ear epithelia at all time points"}]}
{"compound": "phosphatidylinositol-4,5-bisphosphate [PIP2]", "values": [{"measurement": "GTTR fluorescence in FATX-fixed MDCK cells", "setting": "[3]", "value": "clearly quenched the GTTR fluorescence"}, {"measurement": "GTTR uptake", "setting": "[4]", "value": "large reduction in GTTR uptake"}]}
